# “Also recorded” adds a separate entry of the source.
# Key:
# [1] = Phase 1 plasma pharmacokinetics, multiple-ascending dose (MAD) cohorts; assay type: in vivo, human; conditions: for AUC24 / Cmax / Tmax: Day 1; for AUC24 / Cmax / AUCtau / Cmax, ss: geometric mean; for AUC24 / Cmax / Tmax / AUCtau / Cmax, ss / CLss/F / t1/2 / Tmax, ss: n = 6; for Tmax / Tmax, ss: median; for CLss/F / t1/2: mean ± SD
# Procedure: Multiple-ascending dose (MAD) cohorts. The MAD cohorts also used a randomized, double-blind, placebo-controlled, sequential design.
# Pharmacokinetic analyses. For all study groups, blood samples for PK assessment were obtained pre-dose, up to 12 times daily on day 1, and then at regular intervals throughout the study. Blood samples were collected according to the following schedule: SAD Cohorts: Day 1: pre-dose and 0.25, 0.5, 1, 1.5, 2, 2.5, 3, 4, 6, 8, 12, 16, 24, 36, 48, 72, 96, and 216 h post dose. MAD Cohorts (14-day Dosing): Day 1: pre-dose and 0.25, 0.5, 1, 1.5, 2, 2.5, 3, 4, 6, 8, and 12 h post dose; Days 2, 4, 5, 6, and 9: pre-dose (corresponding to trough samples following dosing on days 1, 3, 4, 5, and 8) and 1.5 h post dose; Days 3, 7, 8, 10, 11, 12, and 13: pre-dose (corresponding to trough samples following dosing on days 2, 6, 7, 9, 10, 11, and 12); Day 14: pre-dose and 0.25, 0.5, 1.5, 2, 2.5, 3, 4, 6, 8, 12, 16, 24, 36, 48, 72, and 168 h post dose. MAD Cohort (17-Day Dosing): Day 1: pre-dose and 0.25, 0.5, 1, 1.5, 2, 2.5, 3, 4, 6, 8, and 12 h post dose; Days 2, 4, 5, 6, and 9: pre-dose (corresponding to trough samples following dosing on days 1, 3, 4, 5, and 8) and 1.5 h post dose; Days 3, 7, 8, 10, 11, 12, 13, 14, 15, and 16: pre-dose (corresponding to trough samples following dosing on days 2, 6, 7, 9, 10, 11, and 12); Day 17: pre-dose and 0.25, 0.5, 1.5, 2, 2.5, 3, 5, 7, 9, 12, 24, 36, 48, 72, and 168 h post dose. CYPD6-PM Cohort: Day 1: pre-dose and 0.25, 0.5, 1, 1.5, 2, 2.5, 3, 4, 6, 8, 12, 16, 24, 36, 48, 72, 96, 216, 312, and 552 h post dose. Food-Effect Cohort: Day 1: pre-dose and 0.25, 0.5, 1, 1.5, 2, 2.5, 3, 4, 6, 8, 12, 16, 24, 36, 48, 72, 96, 144, and 216 h post dose. Standard non-compartmental methods were used to calculate PK parameters using Phoenix® WinNonlin® Version 7.0; actual sample collection times were utilized.
# For the MAD cohort, the parameters were AUC24 and Cmax on day 1, plus AUC to the end of the dosing period (AUCtau) and Cmax on day 14 or 17. The statistical linear relationship between the In-transformed PK parameters and the In-transformed dose was verified by including the quadratic (ln Dose)^2 and cubic (ln Dose)^3 effects. […] The dose-proportionality analysis was performed using SAS® PROC MIXED.
# An analysis of variance (ANOVA) model was conducted separately for each dose level; day was included as the fixed effect. Helmert contrasts were developed such that each time-point was compared with the mean of the subsequent time-points.
# [2] = tested on: patients with symptomatic non-obstructive HCM (nHCM) or HCM with MVO; experiment: Phase 2 trial (Example 2): patient-reported outcomes (KCCQ-CSS, SAQ-AF); assay type: in vivo, human
# Description: Health Status and Health-related Quality of Life: when available, patients completed patient-reported outcome (PRO) questionnaires prior to dosing at Day 1, at Week 6, at Week 10 and at Week 12. The following instruments were be used at these visits: by Short Form 36 physical function sub-scale (SF-36-PFS), Kansas City Cardiomyopathy Questionnaire Clinical Summary Score (KCCQ-CSS), SAQ7, PGI-C (Week 10 only), and CGI (Week 10 only).
# The exploratory health status and health-related quality of life endpoints included but were not limited to change from baseline to Week 10 and a slope of change from baseline to Week 10 in: (i) T-scores for PROMIS Dyspnea Severity Short Form 10a, PROMIS Dyspnea Severity Short Form 10a with two additional items, PROMIS Fatigue Short Form 7a, and PROMIS Physical Function Short Form 8b; (ii) Norm-based T scores for SF-36 Physical Functioning subscale; (iii) Individual responses to the HCM Global Impression of Status questionnaire at baseline, Week 6, and Week 10; (iv) Individual responses to the HCM Global Impression of Change questionnaire at Week 6 and Week 10; (v) Change in KCCQ score from baseline to Week 10; and (vi) Change in SAQ7 score from baseline to Week 10.
# [3] = tested on: patients with symptomatic non-obstructive HCM (nHCM) or HCM with MVO; experiment: Phase 2 trial (Example 2): safety and tolerability; conditions: for Patients with fatal TEAEs: not related
# Description: The study excluded patients receiving disopyramide. […] Overall, the treatment duration was 10 weeks with a 4-week follow-up period after the last dose.
# Patients were eligible to be included in the study only if all the following criteria apply: 1. Able to comprehend and willing to sign an informed consent form (ICF) and willing to comply with all study procedures and restrictions for the duration; 2. Males and females between 18 and 85 years of age at screening; 3. Body weight is ≥45 kg at screening; 4. Diagnosed with HCM per the following criteria: (a) has LV hypertrophy and non-dilated LV chamber in the absence of other cardiac disease; and (b) has minimal wall thickness ≥15 mm (minimal wall thickness ≥13 mm is acceptable with a positive family history of HCM or with a known disease-causing gene mutation); 5. Adequate acoustic windows for echocardiography; 7. Left ventricular ejection fraction (LVEF) ≥60% at screening; 8. New York Heart Association (NYHA) Class II or III at screening; 9. Patients on beta-blockers, verapamil, diltiazem, or ranolazine should have been on stable doses for ≥4 weeks and anticipate remaining on the same medication regimen during the study; 10. […] Able to complete all screening procedures.
# Patients were excluded from the study if any of the following criteria applied: 1. Aortic stenosis or fixed subaortic obstruction; 2. Known infiltrative or storage disorder causing cardiac hypertrophy that mimics HCM (e.g., Noonan syndrome, Fabry disease, amyloidosis); 3. […] Documented history of current obstructive coronary artery disease (>70% stenosis in one or more epicardial coronary arteries) or documented history of myocardial infarction; 6. […] Has any ECG abnormality considered by the investigator to pose a risk to patient safety (e.g., second degree atrioventricular block type II); 9. Paroxysmal atrial fibrillation or flutter documented during the screening period; 10. […] Currently participating in another investigational device or drug study or received an investigational device or drug <1 month (or 5 half-lives for drugs, whichever is longer) prior to screening; 20.
# Each patient received Dose 1 once daily for 2 weeks. […] Otherwise, the patient remained on Dose 1. If LVEF was <50% at Week 2, treatment was discontinued.
# Otherwise, the patient remained on the same dose. If LVEF was <50% at Week 4, the patient returned to a prior dose level or treatment was discontinued if the patient was on Dose 1.
# If LVEF was <50% at Week 6, the patient was down-titrated to a prior dose level or discontinued if the patient was on Dose 1.
# Primary safety endpoints were: (i) patient incidence of reported AEs from first dose up to safety follow-up; (ii) patient incidence of reported SAEs from first dose up to safety follow-up; (iii) patient incidence of LVEF <50% from first dose up to safety follow-up.
# Safety follow-up was defined as 4 weeks following the last dose.
# [4] = number of patients, N = 41, interim
smiles,measurement,setting,value
"CCc1nc(-c2ccc3c(c2)CC[C@H]3NC(=O)c2cnn(C)c2)no1 [aficamten, (R)—N-(5-(5-ethyl-1,2,4-oxadiazol-3-yl)-2,3-dihydro-1H-inden-1-yl)-1-methyl-1H-pyrazole-4-carboxamide]",AUC24,[1]; MAD 5 mg qd × 14 Days,278 ng·h/mL
same,Cmax,[1]; MAD 5 mg qd × 14 Days,28.0 ng/mL
same,Tmax,[1]; MAD 5 mg qd × 14 Days,1.3 h
same,AUCtau,"[1]; MAD 5 mg qd, Day 14",1320 ng·h/mL
same,"Cmax, ss","[1]; MAD 5 mg qd, Day 14",69.0 ng/mL
same,CLss/F,"[1]; MAD 5 mg qd, Day 14",3.9 ± 0.9 L/h
same,t1/2,"[1]; MAD 5 mg qd, Day 14",86.4 ± 11.9 h
same,"Tmax, ss","[1]; MAD 5 mg qd, Day 14",2.8 h
same,Tmax,[1]; MAD 7.5 mg qd × 17 Days,0.8 h
same,AUCtau,"[1]; MAD 7.5 mg qd, Day 17",2518 ng·h/mL
same,"Cmax, ss","[1]; MAD 7.5 mg qd, Day 17",147.6 ng/mL
same,CLss/F,"[1]; MAD 7.5 mg qd, Day 17",3.1 ± 0.7 L/h
same,t1/2,"[1]; MAD 7.5 mg qd, Day 17",76.9 ± 14.5 h
same,AUC24,[1]; MAD 10 mg qd × 14 Days,547 ng·h/mL
same,Cmax,[1]; MAD 10 mg qd × 14 Days,54.4 ng/mL
same,Tmax,[1]; MAD 10 mg qd × 14 Days,1.0 h
same,AUCtau,"[1]; MAD 10 mg qd, Day 14",2632 ng·h/mL
same,"Cmax, ss","[1]; MAD 10 mg qd, Day 14",141.2 ng/mL
same,CLss/F,"[1]; MAD 10 mg qd, Day 14",3.9 ± 0.8 L/h
same,t1/2,"[1]; MAD 10 mg qd, Day 14",79.8 ± 14.1 h
same,"Tmax, ss","[1]; MAD 10 mg qd, Day 14",2.5 h
same,steady state achieved by end of day,[1]; MAD 5-mg and 7.5-mg doses,12 days
same,steady state achieved by end of day,[1]; MAD 10-mg dose,10 days
same,time to steady state,[1]; once-daily dosing,≤ 2 weeks
same,patients improving KCCQ-CSS by ≥5 points,"[2]; 21 patients, week 10, interim",54%
same,"improvement in KCCQ-CSS, median (IQR)","[2]; from baseline median (IQR) 69.8 (56.8, 83.9), interim","7.3 (−1.0, 18.8) points"
same,patients with clinical reduction in symptom burden (KCCQ-CSS),"[2]; week 10, second interim",58%
same,improvement in mean KCCQ-CSS,"[2]; week 10, second interim, p<0.0001",10.6 points
same,patients who experienced SAEs,"[3]; 4 of 41 patients including one death, second interim",9.8%
same,overall tolerability,"[3]; 10 weeks, nHCM patients",well-tolerated overall
same,patients with LVEF <50%,"[3]; Week 10 (EOT), 3 of 41 patients",7.3%
same,recovery of LVEF in patients with LVEF <50%,[3]; by Week 12 (2 weeks' washout),All 3 patients returned to baseline LVEF; also recorded: All LVEF returned to normal
same,AEs of heart failure,[3]; interim,No AEs of heart failure
same,drug discontinuations due to AE,[3]; interim,no drug discontinuations
same,"relatedness of SAEs (bronchitis, new onset atrial fibrillation, cardiac arrest) per Investigator",[3]; interim,None of these were deemed related to aficamten
same,Patients reporting at least one TEAE,[3]; [4],27
same,Patients with AEs related to study drug (per Investigator),[3]; [4],4
same,Patients with Moderate TEAEs,[3]; [4],14
same,Patients with Severe TEAEs,[3]; [4],3
same,Patients with fatal TEAEs,[3]; [4],1
same,Patients with AEs related to study drug (per Investigator),"[3]; percent of N = 41, interim",(9.8) %
same,Patients with Moderate TEAEs,"[3]; percent of N = 41, interim",(34) %
same,Patients with Severe TEAEs,"[3]; percent of N = 41, interim",(7.3) %
same,Patients with TESAEs,"[3]; percent of N = 41, interim",(7.3) %
same,Patients with fatal TEAEs,"[3]; percent of N = 41, interim",(2.4) not related %
same,attribution of SAEs,[3]; second interim,None of the SAEs were attributed to aficamten
same,events with LVEF <40%,[3]; second interim,no events with LVEF <40%; also recorded: No LVEF <40% occurred
same,treatment interruptions or down-titration events related to LVEF <50%,[3]; second interim,no treatment interruptions or down-titration events
same,patients with dose reduction to 10 mg for AE fatigue,"[3]; week 9, interim",One patient
same,LVEF <50% during the titration period,"[3]; weeks 0-6, interim",no LVEF were less than 50%

# — patent publication US20240091203A1, “METHODS FOR TREATING NON-OBSTRUCTIVE HYPERTROPHIC CARDIOMYOPATHY” (Cytokinetics, Incorporated, priority 2022, published 2024)
